Source: patent US6555533B2, “Use of certain substituted caprolactams in treating tumors” (Novartis AG, priority 1998, dated 2003)
Where two headings read alike, the source gives them in different places. Marks after values point to notes of the source that are not given here.

How the values were obtained:
[1] = tested on: MDA-MB-435 breast carcinoma; assay: Anchorage Dependent Growth Monolayer Assay (ADGMA), MDA-MB-435; format: cell-based, human; settings: 3-day exposure, MTS readout; read-out: IC50 (average±S.D.) MDA-MB-435
Protocol: (§1) As indicated above, all of the compounds of formula I, and their corresponding pharmaceutically acceptable acid addition salts, are anti-tumor agents and are, therefore, useful in inhibiting the growth of various lymphomas, sarcomas, carcinomas, myelomas, and leukemia cell lines.
(§2) The ADGMA compares the number of viable cells following a 3-day exposure to a test compound relative to a number of cells present at the time the test compound was added. […] The absorbance at 490 nm (A490) of the formazan derivative is proportional to the number of viable cells. The IC50 for a test compound is the concentration of compound required to reduce the final cell number to 50% of the final control cell number. If cell proliferation is inhibited, the assay further defines compounds as cytostatic (cell number after 3-day compound incubation >cell number at time of compound addition) or cytotoxic (cell number after 3-day compound incubation <cell number at time of compound addition).
The MDA-MB-435 breast carcinoma line was obtained from the American Type Culture Collection (ATCC) and used between passages 4-20 following thawing. MDA-MB-435 breast carcinoma was maintained and plated in DME/F12 medium containing 10% fetal bovine serum, 15 mM HEPES (pH=7.4), 100 units/mL penicillin, and 100 μg/mL streptomycin.
(§3) Cell lines are trypsinized and counted using a Coulter counter to determine plating densities. Cells are then plated in their respective maintenance media (100 μL/well) in 96 well plates at the following densities: MDA-MB-435, 3,000 cells/well; A549 and HCT-116, 700 cells/well; are PC-3, 2500 cells/well. The number of cells plates as determined in preliminary experiments, results in cell densities of 75-90% of confluency by 4 days after plating. Initial cell densities, assayed one day after plating, are roughly 0.15-0.20 absorbance units greater than the media blank. Ninety-six well plates are seeded on day 0 and the test compounds are added on day 1. A control plate is created for each cell line that receives media only in row A and cells in row B. One day following plating, test compounds are added (in a final volume of 100 μL) to the test plates. Control plates receive 10 μL MTS mixture (prepared fresh on day of addition to cell plates at a ratio of 10 μL of a 0.92 mg/mL solution of PMS to a 190 μL of a 2 mg/mL solution of MTS) and 100 μL media. A490 of control plates is read 4 h after MTS addition to determine initial cell density values for each cell line. Three days after addition of test compound, 10 μL/well of MTS mixture is added to the test plates and A490 is read 4 h later. A490 values for wells containing cells are corrected for media absorbance, then normalized to initial density readings to determine percent net growth. IC50 values are determined from graphs of percent net growth as a function of compound concentration. Percent net growth is calculated as (Cell+Drug A490−Initial A490/Cell+Drug Vehicle A490−Initial A490).

[2] = tested on: HCT-116 colon carcinoma; assay: Anchorage Dependent Growth Monolayer Assay (ADGMA), HCT-116; format: cell-based, human; settings: 3-day exposure, MTS readout; read-out: IC50 (average±S.D.) HCT-116
Protocol: as §1, §2
(§4) A549, HCT-116 and PC-3 cells were maintained in RPMI 1640 containing 5% FBS, […], 1 nM β-estradiol, 1 nM testosterone, 100 units/mL penicillin and 100 ug/mL streptomycin.
as §3

[3] = tested on: A549 tumor xenografts
Excerpt: Utilizing this model, one can measure the ability of test compounds to inhibit the growth of human tumor xenografts growing subcutaneously (s.c.) in athymic nude mice. The histologic tumor types employed were MDA-MB-435 breast, A549 non-small cell lung, HCT-116 colon and PC-3 prostate carcinomas.
A549 non-small cell lung carcinoma xenograft model: Briefly, 10 million cells were implanted s.c. into the right flank of athymic (nu/nu) mice, and were allowed to grow until a mass of approximately 120 mm^3 was established. The test compounds are administered three times per week intravenously (i.v.) for three weeks in 5% dextrose, 10%DMSO in water. The test compounds are administered in dose-response fashion in order to evaluate and document the full potential range of activity (efficacy and toxicity) for a given compound. Positive controls are carried out with mitomycin C administered 3 times per week intraperitioneally (i.p.).
Toxicity was monitored by recording average group body weights twice weekly, and by daily observation of general health. Efficacy was monitored by taking measurements of tumor length, width, and depth weekly using digital calipers coupled to automated data collectors. Mean tumor volume (MTV) at initiation of therapy was subtracted from final MTV in order to express the actual tumor growth during treatment (ΔMTV). Anti-tumor activity was expressed as %T/C (ΔMTV of treated group÷ΔMTV of control group×100). Regressions were calculated using the formula: (T/T0−1)×100%, where T is the tumor volume for the treatment group at the end of the experiment, and T0 is the tumor volume at the beginning of the experiment. Statistical significance was evaluated using a one-tailed Student's t-test (p<0.05).

[4] = tested on: A549 non-small cell lung carcinoma; assay: Anchorage Dependent Growth Monolayer Assay (ADGMA), A549; format: cell-based, human; settings: 3-day exposure, MTS readout; read-out: IC50 (average±S.D.) A549
Protocol: as §1, §2, §4, §3

[5] = tested on: HCT-116 tumor xenografts; assay: HCT-116 colon carcinoma xenograft model; format: in vivo, athymic (nu/nu) mice
Protocol: Positive controls are carried out with 5-fluorouracil administered 1 time per week i.v.

[6] = tested on: PC-3 prostate carcinoma; assay: Anchorage Dependent Growth Monolayer Assay (ADGMA), PC-3; format: cell-based, human; settings: 3-day exposure, MTS readout; read-out: IC50 (average±S.D.) PC-3
Protocol: as §1, §2, §4, §3

[7] = tested on: MDA-MB-435 tumor xenografts; assay: MDA-MB-435 breast carcinoma xenograft model; format: in vivo, athymic (nu/nu) mice
Protocol: Positive controls are carried out with doxorubicin administered 3 times per week i.v.
The following results were obtained for compounds of Ex.1-Ex.12 tested against MDA-MB-435 tumor xenografts 3×/week for 3 weeks: […]

[8] = H2O solubility; format: physicochemical; settings: water; for Example 1 stated for the solid before preparative hplc
[9] = 10 μmol/kg i.v. 3×/week for 3 weeks
[10] = 33 μmol/kg i.v. 3×/week for 3 weeks
[11] = 100 μmol/kg i.v. 3×/week for 3 weeks

For CO[C@@H](C(=O)N[C@H]1CC[C@@H](OC(=O)C2CCCC2)CNC1=O)[C@H](O)[C@@H](O)[C@H](O)/C=C/C(C)(C)C [Ex. 2], the IC50 [1] was 128 ± 47 nM, the IC50 [2] was 120 ± 29 nM and the “% T/C” value [3, 9] was 58%. For the same compound, the Dead/Total [3, 9] was 0/8, the “Δ MTV” value [3, 9] was 44 mm^3 and the “% T/C” value [3, 10] was 37* %. The Dead/Total [3, 10] was 0/8, the “Δ MTV” value [3, 10] was 28 mm^3 and the “% T/C” value [3, 11] was 9* %. For the same compound, the Dead/Total [3, 11] was 0/7, the “Δ MTV” value [3, 11] was 7 mm^3 and the IC50 [4] was 201 ± 100 nM. For the same compound, the “% T/C” value [5, 9] was 75%, the Dead/Total [5, 9] was 0/8 and the “Δ MTV” value [5, 9] was 303 mm^3. For the same compound, the “% T/C” value [5, 10] was 56* %, the Dead/Total [5, 10] was 0/8 and the “Δ MTV” value [5, 10] was 225 mm^3. The “% T/C” value [5, 11] was 25* %, the Dead/Total [5, 11] was 0/8 and the “Δ MTV” value [5, 11] was 102 mm^3. For the same compound, the IC50 [6] was 145 ± 53 nM, the “% T/C” value [7, 9] was 67% and the Dead/Total [7, 9] was 0/8. For the same compound, the “% T/C” value [7, 10] was 13* %, the Dead/Total [7, 10] was 0/8 and the H2O solubility [8] was 18 mg/mL.
